Measured values reported in patent US20130136827A1, “Method and Composition for Increasing The Proportion of Dietary Ingredients That Are Resistant To Degradation by Ruminal Microorganisms” (priority 2011, published 2013).

Tests used:
[1] = system: microorganisms within the rumen ecosystem; conditions: Montgomery et al., J Anim Sci. 86(3):640-50; cited from earlier work
ruminal microbes = assay: In situ ruminal incubation of samples in Dacron bags for 24 hours
Description: The in situ procedure utilizes small in situ bags made of a nitrogen-free synthetic polyester fabric (Dacron®; Ankom Technology, Mecedon, N.Y.) that has a 50 μm pore size. The pores are sufficiently small such that when feed materials are placed into the bag the contents are retained. The pore size also is large enough to allow for entry of microorganisms into the bag when placed into the rumen, thus exposing the contents to the degradative actions of ruminal microbes. Disappearance of feed particles from the bag is presumed to be due to microbial fermentative activity whilst the bag and its contents are suspended within the rumen environment. In situ assays provide useful information regarding the susceptibility of feeds to microbial digestion within the rumen.
The test procedure consisted of adding 12 g of sample (as is) to Dacron bags, which then were heat sealed and subsequently placed into the rumen and allowed to incubate for 24 hours. Bags then were removed from the rumen, dried and weighed to determine disappearance of dry matter. Concentrations of protein, total fatty acids, and fatty acid profile were determined for the residue from each sample. Samples were prepared in duplicate within each animal, along with blank bags for correction, and six animals were used. Three cattle were fed a high-concentrate diet and 3 were fed a high-forage, i.e., low concentrate diet.
These values were used to calculate the extent of dry matter and nutrient disappearance during the in situ digestion procedure.

Row | SMILES | dietary ALA available for absorption in the postruminal digestive tract [1] | ruminally degraded / disappearance of dry matter, over Low and High concentrate groups (ruminal microbes; 24-hour period of ruminal incubation, text summary of Table VII) [%] | In situ dry matter disappearance (%), Mean (ruminal microbes; 24 hours of ruminal incubation, average of Low and High concentrate groups) [%] | In situ dry matter disappearance (%), High Concentrate (ruminal microbes; 24 hours of ruminal incubation, cattle on high-concentrate diet) [%] | In situ dry matter disappearance (%), Low Concentrate (ruminal microbes; 24 hours of ruminal incubation, cattle on high-forage/low concentrate diet) [%]
1 | CC/C=C\C/C=C\C/C=C\CCCCCCCC(=O)O [ALA, Alpha-linolenic acid] | less than 5% |  |  |  | 
2 | Cl.NCCCC[C@H](N)C(=O)O [Lysine, lysine hydrochloride] |  | ≥ 99.83 | 99.86 | 99.83 | 99.88
